Test results from ChEMBL document CHEMBL5335870, “Discovery of Hepatitis B Virus Surface Antigen Suppressor GS-8873” (ACS Med Chem Lett, 2024).

What was measured:
[1] = Clearance in Beagle dog at 0.5 mg/kg, iv; type: ADME, organism-based, Canis lupus familiaris; conditions: in vivo
[2] = Oral bioavailability in Cynomolgus monkey at 0.5 mg/kg; type: ADME, organism-based, Macaca fascicularis; conditions: in vivo
[3] = Oral bioavailability in Beagle dog at 0.5 mg/kg; type: ADME, organism-based, Canis lupus familiaris; conditions: in vivo
[4] = MRT in Beagle dog at 0.5 mg/kg, iv; type: ADME, organism-based, Canis lupus familiaris; conditions: in vivo
[5] = MRT in Cynomolgus monkey at 0.4 mg/kg, iv; type: ADME, organism-based, Macaca fascicularis; conditions: in vivo
[6] = Oral bioavailability in Sprague-Dawley rat at 3 mg/kg; type: ADME, organism-based; conditions: in vivo
[7] = Half life in Beagle dog at 0.5 mg/kg, iv; type: ADME, organism-based, Canis lupus familiaris; conditions: in vivo
[8] = Volume of distribution at steady state in Beagle dog at 0.5 mg/kg, iv; type: ADME, organism-based, Canis lupus familiaris; conditions: in vivo, read-out: Vdss
[9] = Clearance in Rhesus monkey at 0.5 mg/kg, iv; type: ADME, organism-based, Macaca mulatta; conditions: in vivo
[10] = MRT in Sprague-Dawley rat at 1 mg/kg, iv; type: ADME, organism-based; conditions: in vivo
[11] = Clearance in Sprague-Dawley rat at 1 mg/kg, iv; type: ADME, organism-based; conditions: in vivo
[12] = Volume of distribution at steady state in Rhesus monkey at 0.5 mg/kg, iv; type: ADME, organism-based, Macaca mulatta; conditions: in vivo, read-out: Vdss
[13] = Clearance in Cynomolgus monkey at 0.4 mg/kg, iv; type: ADME, organism-based, Macaca fascicularis; conditions: in vivo
[14] = Volume of distribution at steady state in Cynomolgus monkey at 0.4 mg/kg, iv; type: ADME, organism-based, Macaca fascicularis; conditions: in vivo, read-out: Vdss
[15] = Clearance in Sprague-Dawley rat at […], iv measured after 24 hrs by LC/MS/MS method; type: ADME, organism-based; conditions: in vivo
[16] = Oral bioavailability in Sprague-Dawley rat after 24 hrs by LC/MS/MS method; type: ADME, organism-based; conditions: in vivo
[17] = system: Hepatitis B virus; test: Antiviral activity against genotype D HBV infected in sodium taurocholate co-transporting polypeptide receptor-expressing stable HepG2 cell line assessed as suppression of HBsAg level incubated for 5 days by multiplex chemiluminescent MSD assay; type: functional, organism-based; conditions: HepG2, 120 h
[18] = AUC (0 to infinity) Cynomolgus monkey at 0.4 mg/kg, iv; type: ADME, organism-based, Macaca fascicularis; design: dose 0.4 mg/kg, route iv; conditions: in vivo
[19] = Volume of distribution at steady state in Sprague-Dawley rat at 1 mg/kg, iv; type: ADME, organism-based; conditions: in vivo, read-out: Vdss
[20] = AUC (0 to infinity) Rhesus monkey at 0.5 mg/kg, iv; type: ADME, organism-based, Macaca mulatta; design: dose 0.5 mg/kg, route iv; conditions: in vivo
[21] = Half life in Rhesus monkey at 0.5 mg/kg, iv; type: ADME, organism-based, Macaca mulatta; conditions: in vivo
[22] = Half life in Cynomolgus monkey at 0.4 mg/kg, iv; type: ADME, organism-based, Macaca fascicularis; conditions: in vivo
[23] = AUC (0 to infinity) Sprague-Dawley rat at 1 mg/kg, iv; type: ADME, organism-based; design: dose 1 mg/kg, route iv; conditions: in vivo
[24] = Half life in Sprague-Dawley rat at 1 mg/kg, iv; type: ADME, organism-based; conditions: in vivo
[25] = AUC (0 to infinity) Beagle dog at 0.5 mg/kg, iv; type: ADME, organism-based, Canis lupus familiaris; design: dose 0.5 mg/kg, route iv; conditions: in vivo

COCCCOc1cc2c(cc1COC)-c1cc(=O)c(C(=O)O)cn1N1[C@@H]2CCC1(C)C
clearance [1]: 4 mL/min/kg | bioavailability [2]: 91% | bioavailability [3]: 94% | MRT [4]: 3.6 h | MRT [5]: 8.1 h | bioavailability [6]: 91% | half-life [7]: 5.1 h | Vd [8]: 0.85 L/kg | clearance [9]: 3 mL/min/kg | MRT [10]: 2.6 h | clearance [11]: 4.5 mL/min/kg | Vd [12]: 1.14 L/kg | clearance [13]: 2.5 mL/min/kg | Vd [14]: 1.23 L/kg | clearance [15]: 4.5 mL/min/kg | bioavailability [16]: 91% | EC50 [17]: 4 nM | AUC(0-inf) [18]: 5.93 µM·h | Vd [19]: 0.69 L/kg | AUC(0-inf) [20]: 6.41 µM·h | half-life [21]: 5.5 h | half-life [22]: 6.7 h | AUC(0-inf) [23]: 8.44 µM·h | half-life [24]: 2.5 h | AUC(0-inf) [25]: 4.91 µM·h
